From article PMC9994261 (Cell, 2023)
Converted amounts (≈) assume the structure as drawn. “And” between values parts separate entries of the source, which are not always exact repeats. Equal values may be shown once. Read-outs that look alike come from different tables or passages of the source.

Experiments:
[1] = system: Mtb H37Rv SEQ-9 resistant mutants; assay type: cell-based, Mycobacterium tuberculosis
Mtb clinical strains = test: microbe, parasite or virus in culture; assay type: cell-based; details: Mycobacterium tuberculosis, read-out: MIC against Mtb clinical strain

SMILES: COc1nc2ccc(Br)cc2cc1[C@@H](c1ccccc1)[C@@](O)(CCN(C)C)c1cccc2ccccc12 [BDQ, Bedaquiline]
- Growth inhibition (MIC80) [1]: 0.044 µM and 0.042 µM and 0.036 µM

SMILES: CC[C@H]1OC(=O)[C@H](C)[C@@H](O[C@H]2C[C@@](C)(OC)[C@@H](O)[C@H](C)O2)[C@H](C)[C@@H](O[C@@H]2O[C@H](C)C[C@H](N(C)C)[C@H]2O)[C@](C)(OC)C[C@@H](C)C(=O)[C@H](C)[C@@H](O)[C@]1(C)O [Clarithromycin]
- Growth inhibition @ 30µM ([1]; 30 µM): 55% and 70%

SMILES: CC(=O)NC[C@H]1CN(c2ccc(N3CCOCC3)c(F)c2)C(=O)O1 [Linezolid]
- Growth inhibition (MIC80) [1]: 0.92 µM and 0.95 µM and 1.14 µM and 0.80 µM and 0.79 µM

SMILES: CON=C1CC(C)OC(OC2C(C)CC(C)(OC(=O)NC(C)(C)CNS(=O)(=O)c3ccccc3)C(=O)C(C)C(OC(=O)CC(C)C)C(C)C(C(C)COC3OC(C)C(O)C(OC)C3OC)OC(=O)C(C)C(OC3CC(C)N(C)CC(C)O3)C2C)C1O (stereo not drawn) [SEQ-9]
- MIC (Mtb clinical strains; KMA1354-Modern): 0.9 µM (≈ 1.12 µg/mL)
- MIC (Mtb clinical strains; KMA3899-Ancient): 1.4 µM (≈ 1.74 µg/mL)
- MIC (Mtb clinical strains; KMA4244-Modern): 1.4 µM (≈ 1.74 µg/mL)
- MIC (Mtb clinical strains; KMA4439-Modern): 1.4 µM (≈ 1.74 µg/mL)
- MIC (Mtb clinical strains; KMA5282-Modern): 0.6 µM (≈ 0.746 µg/mL)
- MIC (Mtb clinical strains; KMA5319-Modern): 0.7 µM (≈ 0.87 µg/mL)
